Experimental findings from patent US20240300980A1, “HETEROCYCLIC COMPOUNDS AS KRAS INHIBITOR, AND PREPARATION THEREFOR AND USE THEREOF IN TREATMENT” (SHANGHAI KECHOW PHARMA, INC., priority 2021, published 2024) are described below.

As a reminder, the IC50 is the concentration that inhibits the measured activity by half.

The structures appear in SMILES notation.

The test system of this test is AGS cells (KRAS^G12D). Kind of test: Detection of cell proliferation in vitro by MTT/MTS method (cell activity experiment). The class given is cell-based. Conditions: Homo sapiens, AGS, 72 h, AGS cells; MTT/MTS; 3 days of drug treatment; read-out: AGS IC50. The method, boiled down:
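After 3-day compound exposure (final DMSO 0.5%), viability of AGS (KRAS G12D) cells, plated 1000/well one day before dosing, was measured at 490 nm following 4 h MTT or MTS incubation. IC50 was fitted from dose–effect curves relative to DMSO-treated wells.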
A general note: Tetrazolium dyes change colour on reduction, which living cells bring about.
`C#Cc1cccc2cc(O)cc(-c3ncc4c(N5CC6CCC(C5)C6O)nc(OC[C@@]56CCCN5C[C@H](F)C6)nc4c3F)c12` (stereo partly drawn) [Example 61, (1R,5S,8R)-3-(7-(8-ethynyl-3-hydroxynaphthalen-1-yl)-8-fluoro-2-(((2R, 7aS)-2-fluorotetrahydro-1H-pyrrolizin-7a(5H)-yl)methoxy)pyrido[4,3-d]pyrimidin-4-yl)-3-azabicyclo[3.2.1] octan-8-ol]: the IC50 was above 2.5 µM. In the case of `C#Cc1c(F)ccc2cc(O)cc(-c3ncc4c(N5CC6CCC(C5)C6C#N)nc(OC[C@@]56CCCN5C[C@H](F)C6)nc4c3F)c12` (stereo partly drawn) [Example 62, (1R,5S,8S)-3-(7-(8-ethynyl-7-fluoro-3-hydroxynaphthalen-1-yl)-8-fluoro-2-(((2R, 7aS)-2-fluorotetrahydro-1H-pyrrolizin-7a(5H)-yl)methoxy)pyrido[4,3-d]pyrimidin-4-yl)-3-azabicyclo[3.2.1] octane-8-carbonitrile], the IC50 was above 2.5 µM. As for `C#Cc1c(F)ccc2cc(O)cc(-c3ncc4c(N5CC6CCC(C5)C6N)nc(OC[C@@]56CCCN5C[C@H](F)C6)nc4c3F)c12` (stereo partly drawn) [Example 63, 4-(4-((1R,5S,8R)-8-amino-3-azabicyclo [3.2.1]octan-3-yl)-8-fluoro-2-(((2R,7aS)-2-fluorotetrahydro-1H-pyrrolizin-7a(5H)-yl)methoxy)pyrido[4,3-d]pyrimidin-7-yl)-5-ethynyl-6-fluoronaphthalen-2-ol], the figure is 1.57 µM. `C#Cc1c(F)ccc2cc(O)cc(-c3ncc4c(N5CC6CCC(C5)C6SC)nc(OC[C@@]56CCCN5C[C@H](F)C6)nc4c3F)c12` (stereo partly drawn) [Example 64, 5-ethynyl-6-fluoro-4-(8-fluoro-2-(((2R,7aS)-2-fluorotetrahydro-1H-pyrrolizin-7a(5H)-yl)methoxy)-4-((1R,5S, 8R)-8-(methylthio)-3-azabicyclo[3.2.1]octan-3-yl)pyrido[4,3-d]pyrimidin-7-yl) naphthalen-2-ol]: the IC50 is above 10 µM.

Regarding `C#Cc1c(F)ccc2cc(O)cc(-c3ncc4c(N5CC6CCC(C5)C6[S+](C)[O-])nc(OC[C@@]56CCCN5C[C@H](F)C6)nc4c3F)c12` (stereo partly drawn) [Example 65, 5-ethynyl-6-fluoro-4-(8-fluoro-2-(((2R,7aS)-2-fluorotetrahydro-1H-pyrrolizin-7a(5H)-yl)methoxy)-4-((1R,5S, 8R)-8-(methylsulfinyl)-3-azabicyclo[3.2.1]octan-3-yl)pyrido[4,3-d]pyrimidin-7-yl) naphthalen-2-ol], the IC50 was above 10 µM. For the compound `C#Cc1c(F)ccc2cc(O)cc(-c3ncc4c(N5CC6CCC(C5)C6S(C)(=O)=O)nc(OC[C@@]56CCCN5C[C@H](F)C6)nc4c3F)c12` (stereo partly drawn) [Example 66, 5-ethynyl-6-fluoro-4-(8-fluoro-2-(((2R,7aS)-2-fluorotetrahydro-1H-pyrrolizin-7a(5H)-yl)methoxy)-4-((1R,5S, 8R)-8-(methylsulfonyl)-3-azabicyclo[3.2.1]octan-3-yl)pyrido[4,3-d]pyrimidin-7-yl) naphthalen-2-ol], the IC50 is above 10 µM. As for `C#Cc1c(F)ccc2cc(O)cc(-c3ncc4c(N5CC6CCC(C5)C6S(=O)(=O)C(F)(F)F)nc(OC[C@@]56CCCN5C[C@H](F)C6)nc4c3F)c12` (stereo partly drawn) [Example 67, 5-ethynyl-6-fluoro-4-(8-fluoro-2-(((2R,7aS)-2-fluorotetrahydro-1H-pyrrolizin-7a(5H)-yl)methoxy)-4-((1R,5S, 8R)-8-((trifluoromethyl)sulfonyl)-3-azabicyclo[3.2.1]octan-3-yl)pyrido[4,3-d]pyrimidin-7-yl)naphthalen-2-ol], the figure is above 10 µM; as for `C#Cc1c(F)ccc2cc(O)cc(-c3ncc4c(N5CCC(C#N)CC5)nc(OC[C@@]56CCCN5C[C@H](F)C6)nc4c3F)c12` [Example 68, 1-(7-(8-ethynyl-7-fluoro-3-hydroxynaphthalen-1-yl)-8-fluoro-2-(((2R, 7aS)-2-fluorotetrahydro-1H-pyrrolizin-7a(5H)-yl)methoxy)pyrido[4,3-d]pyrimidin-4-yl)piperidine-4-carbonitrile], 1.29 µM; as for `C#Cc1c(F)ccc2cc(O)cc(-c3ncc4c(N5CC(C#N)C5)nc(OC[C@@]56CCCN5C[C@H](F)C6)nc4c3F)c12` [Example 69, 1-(7-(8-ethynyl-7-fluoro-3-hydroxynaphthalen-1-yl)-8-fluoro-2-(((2R, 7aS)-2-fluorotetrahydro-1H-pyrrolizin-7a(5H)-yl)methoxy)pyrido[4,3-d]pyrimidin-4-yl) azetidine-3-carbonitrile], 0.411 µM. Turning to `C#Cc1c(F)ccc2cc(O)cc(-c3ncc4c(N5CC6(CNC6)C5)nc(OC[C@@]56CCCN5C[C@H](F)C6)nc4c3F)c12` [Example 70, 5-ethynyl-6-fluoro-4-(8-fluoro-2-(((2R, 7aS)-2-fluorotetrahydro-1H-pyrrolizin-7a(5H)-yl)methoxy)-4-(2,6-diazaspiro[3.3]heptan-2-yl)pyrido[4,3-d]pyrimidin-7-yl)naphthalen-2-ol], the IC50 is above 2.5 µM. As for `C#Cc1c(F)ccc2cc(O)cc(-c3ncc4c(C56CCN(CC5)CC6)nc(OC[C@@]56CCCN5C[C@H](F)C6)nc4c3F)c12` [Example 71, 5-ethynyl-6-fluoro-4-(8-fluoro-2-(((2R, 7aS)-2-fluorotetrahydro-1H-pyrrolizin-7a(5H)-yl)methoxy)-4-(quinuclidin-4-yl)pyrido[4,3-d]pyrimidin-7-yl) naphthalen-2-ol], the figure is above 2.5 µM; as for `Cc1cc(N)nc(-c2ncc3c(N4C[C@H]5CC[C@@H](C4)N5)nc(OC[C@@]45CCCN4C[C@H](F)C5)nc3c2F)c1C1CC1` [Example 72, 6-(4-((1R,5S)-3,8-diazabicyclo[3.2.1]octan-3-yl)-8-fluoro-2-(((2R,7aS)-2-fluorotetrahydro-1H-pyrrolizin-7a(5H)-yl)methoxy)pyrido[4,3-d]pyrimidin-7-yl)-5-cyclopropyl-4-methylpyridin-2-amine], above 2.5 µM.

Turning to `Oc1cc2c(c(-c3ncc4c(N5C[C@H]6CC[C@@H](C5)N6)nc(OC[C@@]56CCCN5C[C@H](F)C6)nc4c3F)c1)C1CC1C2` (stereo partly drawn) [Example 73, 2-(4-((1R,5S)-3,8-diazabicyclo[3.2.1]octan-3-yl)-8-fluoro-2-(((2R,7aS)-2-fluorotetrahydro-1H-pyrrolizin-7a(5H)-yl)methoxy)pyrido[4,3-d]pyrimidin-7-yl)-1,1a, 6,6a-tetrahydrocyclopropa [a]inden-4-ol], the IC50 was 0.0169 µM.

As to `C#Cc1c(F)ccc2cc(O)cc(-c3ncc4c(N5C[C@H]6CC[C@@H](C5)N6)nc(OCC56CCCC5N(C)CC6)nc4c3F)c12` (stereo partly drawn) [Example 74, 4-(4-((1R,5S)-3,8-diazabicyclo [3.2.1]octan-3-yl)-8-fluoro-2-((1-methylhexahydrocyclo-penta[b]pyrrol-3a(1H)-yl)methoxy)pyrido[4,3-d]pyrimidin-7-yl)-5-ethynyl-6-fluoronaphthalen-2-ol], the IC50 was above 2.5 µM. As for `C#Cc1c(F)ccc2cc(O)cc(-c3ncc4c(N5C[C@H]6CC[C@@H](C5)N6)nc(OCC56CCN(C)C5COC6)nc4c3F)c12` (stereo partly drawn) [Example 75, 4-(4-((1R,5S)-3,8-diazabicyclo[3.2.1]octan-3-yl)-8-fluoro-2-((1-methyltetrahydro-1H-furo[3,4-b]pyrrol-3a(4H)-yl)methoxy)pyrido[4,3-d]pyrimidin-7-yl)-5-ethynyl-6-fluoronaphthalen-2-ol], the IC50 is above 2.5 µM. On to `C#Cc1c(F)ccc2cc(O)cc(-c3ncc4c(N5C[C@H]6CC[C@@H](C5)N6)nc(OCC56CC5CN(C)C6)nc4c3F)c12` (stereo partly drawn) [Example 76, 4-(4-((1R,5S)-3,8-diazabicyclo[3.2.1]octan-3-yl)-8-fluoro-2-((3-methyl-3-azabicyclo [3.1.0]hexan-1-yl)methoxy)pyrido[4,3-d]pyrimidin-7-yl)-5-ethynyl-6-fluoronaphthalen-2-ol], for which the IC50 is above 2.5 µM. As for `C#Cc1c(F)ccc2cc(O)cc(-c3ncc4c(N5C[C@H]6CC[C@@H](C5)N6)nc(OCC56CC5CCN6C)nc4c3F)c12` (stereo partly drawn) [Example 77, 4-(4-((1R,5S)-3,8-diazabicyclo[3.2.1]octan-3-yl)-8-fluoro-2-((2-methyl-2-azabicyclo[3.1.0]hexan-1-yl)methoxy)pyrido [4,3-d]pyrimidin-7-yl)-5-ethynyl-6-fluoronaphthalen-2-ol], the figure is above 2.5 µM. With `Oc1cc(-c2ncc3c(C4C[C@H]5CC[C@@H](C4)N5)nc(OC[C@@]45CCCN4C[C@H](F)C5)nc3c2F)c2c(F)c(F)ccc2c1` (stereo partly drawn) [Example 78, 4-(4-((1R,5S)-8-azabicyclo[3.2.1]octan-3-yl)-8-fluoro-2-(((2R,7aS)-2-fluorotetrahydro-1H-pyrrolizin-7a(5H)-yl)methoxy)pyrido[4,3-d]pyrimidin-7-yl)-5,6-difluoronaphthalen-2-ol], the IC50 is above 2.5 µM. As for `C#Cc1c(F)ccc2cc(O)cc(-c3ncc4c(C5C[C@H]6CC[C@@H](C5)N6)nc(OC[C@@]56CCCN5C[C@H](F)C6)nc4c3F)c12` (stereo partly drawn) [Example 79, 4-(4-((1R,5S)-8-azabicyclo[3.2.1]octan-3-yl)-8-fluoro-2-(((2R,7aS)-2-fluorotetrahydro-1H-pyrrolizin-7a(5H)-yl)methoxy)pyrido[4,3-d]pyrimidin-7-yl)-5-ethynyl-6-fluoronaphthalen-2-ol], the figure is above 2.5 µM; as for `CCc1c(F)ccc2cc(O)cc(-c3ncc4c(C5C[C@H]6CC[C@@H](C5)N6)nc(OC[C@@]56CCCN5C[C@H](F)C6)nc4c3F)c12` (stereo partly drawn) [Example 80, 4-(4-((1R,5S)-8-azabicyclo[3.2.1]octan-3-yl)-8-fluoro-2-(((2R,7aS)-2-fluorotetrahydro-1H-pyrrolizin-7a(5H)-yl)methoxy)pyrido[4,3-d]pyrimidin-7-yl)-5-ethyl-6-fluoronaphthalen-2-ol], above 2.5 µM. Take `CCc1cccc2cc(O)cc(-c3ncc4c(C5C[C@H]6CC[C@@H](C5)N6)nc(OC[C@@]56CCCN5C[C@H](F)C6)nc4c3F)c12` (stereo partly drawn) [Example 81, 4-(4-((1R,5S)-8-azabicyclo[3.2.1]octan-3-yl)-8-fluoro-2-(((2R,7aS)-2-fluorotetrahydro-1H-pyrrolizin-7a(5H)-yl)methoxy)pyrido [4,3-d]pyrimidin-7-yl)-5-ethylnaphthalen-2-ol]: the IC50 is above 2.5 µM.
